Laboratory results published in PMC11407943, “Cdc14 phosphatases use an intramolecular pseudosubstrate motif to stimulate and regulate catalysis” (The Journal of Biological Chemistry, 2024).
Starred links: 1 amine or outer side, 2 acyl side, 3 side chain; linkers in the order of their positions; H or OH if unused. Positions of bridges follow the written chain, without caps; N, C: chain ends. Non-standard residues stand in square brackets, D forms with d. Residues, ends and D or L forms follow the SMILES beside them. No end group written: not given here. *: point of attachment. hTyr(3S-OH,4S-OH,3'-OSO3H) = N[C@H](C(=O)O)[C@H](O)[C@@H](O)c1ccc(O)c(OS(=O)(=O)O)c1; Orn(4R-OH,5R-OH) = O=C([C@H](C[C@@H](O)[C@@H](O)N[*:3])N[*:1])[*:2]; Pro(3S-OH,4S-Me) = C[C@H]1CN[C@H](C(=O)O)[C@H]1O; X1 = CCCCCOc1ccc(-c2cc(-c3ccc(C(=O)*)cc3)no2)cc1; Gln(3R-OH) = NC(=O)C[C@@H](O)[C@H](N)C(=O)O; Hyp = O=C(O)[C@@H]1C[C@@H](O)CN1; pS = N[C@@H](COP(=O)(O)O)C(=O)O

Key:
hCdc14A^1-413 = molecular target: T1, hCdc14A^1-413 (Homo sapiens, UniProt Q9UNH5); settings: n = 3
T1 construct: gene CDC14A
T1 sequence (Q9UNH5 1-413): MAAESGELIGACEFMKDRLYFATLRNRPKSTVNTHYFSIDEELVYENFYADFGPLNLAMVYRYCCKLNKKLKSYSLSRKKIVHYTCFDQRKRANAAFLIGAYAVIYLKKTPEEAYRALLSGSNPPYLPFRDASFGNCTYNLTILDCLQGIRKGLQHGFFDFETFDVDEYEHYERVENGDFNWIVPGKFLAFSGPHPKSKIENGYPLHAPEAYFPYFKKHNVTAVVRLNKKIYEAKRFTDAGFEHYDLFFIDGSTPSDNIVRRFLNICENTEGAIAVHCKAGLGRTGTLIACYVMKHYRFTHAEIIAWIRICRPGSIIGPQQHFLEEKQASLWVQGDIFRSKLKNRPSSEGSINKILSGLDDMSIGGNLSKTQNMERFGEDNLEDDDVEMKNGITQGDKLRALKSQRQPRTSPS
Procedure: (§1) Data from velocity versus substrate concentration plots were fit with the Michaelis–Menten equation in GraphPad Prism (https://www.graphpad.com/) to determine steady-state kinetic parameters kcat and KM. For trans peptide stimulation assays, DiFMUP was used at a single concentration well above the measured KM for each enzyme. […] (where pS is phosphoSer), were assayed in Cdc14 reaction buffer with Biomol Green (Enzo Life Science) detection of released inorganic phosphate as previously described ([29]). Data were fit with a modified Michaelis–Menten equation including a substrate inhibition term in Prism.
(§2) B, initial velocities as a function of increasing DiFMUP concentration were measured under steady-state conditions for the indicated ScCdc14 variants. […] Data are average values from at least three independent measurements. Error bars are SDs. Lines are best fits for the Michaelis–Menten equation. C, to better visualize differences in KM, all Vmax values from data in panel A were normalized to 1. […] E, a representative presteady-state reaction progress graph for reaction of the indicated ScCdc14 enzyme variants with 200 μM DiFMUP, measured in a stopped flow spectrofluorometer. Data were fit with Equation 1 (see Experimental procedures) to generate rates of the burst phase (kburst) of the reaction. […]

hCdc14A^Q395A = molecular target: T2, hCdc14A^Q395A (Homo sapiens, UniProt Q9UNH5, Q395A); settings: n = 3
T2 construct: gene CDC14A
T2 sequence (Q9UNH5 1-413 Q395A): as the sequence (Q9UNH5 1-413) above, with Q395A counted along it
Procedure: as §1, §2

hCdc14A^3A [1] = molecular target: T3, hCdc14A^3A (Homo sapiens, UniProt Q9UNH5, L399A/R400A/K403A); settings: n = 3
T3 construct: gene CDC14A
T3 sequence (Q9UNH5 1-413 L399A/R400A/K403A): as the sequence (Q9UNH5 1-413) above, with L399A, R400A, K403A counted along it
Procedure: as §1, §2

hCdc14A^3A [2] = assay: Trans stimulation of hCdc14A^3A by synthetic SLiCE peptides; settings: for stimulation of activity: near-saturating DiFMUP (300 μM), pH 7.5, 30 °C; for trans stimulation, interchangeability test: 2 mM peptide, 100 μM DiFMUP, 10 nM hCdc14A^3A, versus unstimulated
Procedure: (§3) B, same as panel A with WT hCdc14A that contains a functional SLiCE motif. […] All reactions contained 200 μM peptide substrate and were run for 30 min. […] Data are means of six measurements and error bars are SDs. D, same as panel C with hCdc14A enzyme at 1 μM for human SLiCE substrate and 100 nM for yeast SLiCE and Acm1pS3 substrates. E, peptide stimulation assays using 10 μM DiFMUP as substrate were conducted as in Figures 3A and 6A with ScCdc14^1-374 (50 nM) and 2 mM each stimulating peptide. F, same as panel E with hCdc14A^3A (10 nM) using 100 μM DiFMUP.
(§4) For trans peptide stimulation assays, DiFMUP was used at a single concentration well above the measured KM for each enzyme. […] (where pS is phosphoSer), were assayed in Cdc14 reaction buffer with Biomol Green (Enzo Life Science) detection of released inorganic phosphate as previously described ([29]). Data were fit with a modified Michaelis–Menten equation including a substrate inhibition term in Prism.

WT hCdc14A = assay: Trans stimulation of WT hCdc14A by synthetic SLiCE peptides; settings: near-saturating DiFMUP (300 μM), pH 7.5, 30 °C
Procedure: as §3, §4

ScCdc14^1-449 = ScCdc14^1-449 (Saccharomyces cerevisiae, UniProt Q00684); assay: Dephosphorylation of SLiCE phosphopeptides by ScCdc14^1-449; settings: 200 μM peptide, 30 min; enzyme 50 nM (yeast SLiCE), 1 μM (human SLiCE), 25 nM (Acm1pS3); mean of six
ScCdc14^1-449, sequence (Q00684 1-449): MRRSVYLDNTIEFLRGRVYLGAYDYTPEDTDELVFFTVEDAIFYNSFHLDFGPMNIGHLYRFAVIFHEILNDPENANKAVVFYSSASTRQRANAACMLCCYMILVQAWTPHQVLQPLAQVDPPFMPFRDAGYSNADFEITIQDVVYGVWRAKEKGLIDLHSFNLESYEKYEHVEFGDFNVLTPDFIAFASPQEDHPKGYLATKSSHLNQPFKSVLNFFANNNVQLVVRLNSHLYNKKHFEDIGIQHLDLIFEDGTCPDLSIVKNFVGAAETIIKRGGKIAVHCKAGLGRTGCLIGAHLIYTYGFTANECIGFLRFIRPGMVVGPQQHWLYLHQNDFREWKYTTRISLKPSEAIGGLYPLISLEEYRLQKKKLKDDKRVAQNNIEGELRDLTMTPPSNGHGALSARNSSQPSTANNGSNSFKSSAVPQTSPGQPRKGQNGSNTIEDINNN
Procedure: as §3, §4

ScCdc14^1-374 = assay: Trans stimulation of ScCdc14^1-374 by synthetic SLiCE peptides; type: biochemical, Saccharomyces cerevisiae; settings: for trans stimulation, interchangeability test: 2 mM peptide, 10 μM DiFMUP, 50 nM ScCdc14^1-374, versus unstimulated
[3] = tested on: C. albicans cdc14^S411A and cdc14^S411E strains; assay: Agar plate patch assay, C. albicans cdc14 mutant strains; settings: colonies arising from cdc14^S411A and cdc14^S411E strains; YPD + 50 ng/ml micafungin
Procedure: Values are means of at least six independent measurements and error bars are SDs. […] E, agar plate patch assay with the indicated Candida albicans strains on YPD or YPD + 50 ng/ml micafungin. Plates were incubated at 30 °C for 72 h prior to imaging. Images in panels D and E are representative of multiple experiments performed with three independent isolates of the Ala and Glu mutant strains.
S. cerevisiae and C. albicans cultures were grown in yeast extract/peptone/dextrose (YPD) medium (10 g/l yeast extract, 20 g/l peptone, and 20 g/l glucose) at 30 °C with shaking at 225 rpm. C. albicans strains were supplemented with 8 μg/ml uridine. […] Agar was added to 20% (w/v) for growth on solid medium. […] For C. albicans patch assays, single colonies were resuspended in 100 μl PBS and spread on YPD agar plates ± 50 ng/ml micafungin.

hCdc14A [4] = assay: Dephosphorylation of SLiCE phosphopeptides by hCdc14A; settings: 200 μM peptide, 30 min; enzyme 1 μM (human SLiCE), 100 nM (yeast SLiCE and Acm1pS3); mean of six
Procedure: as §3, §4

hCdc14A [5] = assay: Inhibition of hCdc14A activity toward DiFMUP (not shown); type: biochemical, human
ScCdc14 = assay: Inhibition of ScCdc14 activity toward DiFMUP (not shown); type: biochemical, Saccharomyces cerevisiae

Cc1cc(=O)oc2c(F)c(OP(=O)(O)O)c(F)cc12 [DiFMUP]
Km (hCdc14A^1-413): 24 µM | Km (hCdc14A^Q395A): 2.6 µM | Km (hCdc14A^3A [1]): 0.52 µM

TQGDKAAALASQR [3A peptide]
stimulation of activity (hCdc14A^3A [2]): little effect on activity of either enzyme | stimulation of activity (WT hCdc14A): little effect on activity of either enzyme

TAGDKLRALKSQR [Q395A peptide]
stimulation of activity (hCdc14A^3A [2]): little effect on activity of either enzyme | stimulation of activity (WT hCdc14A): little effect on activity of either enzyme

QTSPG[pS]PRKGQN [yeast SLiCE phosphopeptide]
dephosphorylation as substrate (ScCdc14^1-449): excellent Cdc14 substrate for both ScCdc14 and hCdc14A, almost as reactive as the optimal Acm1pS3 phosphopeptide

TQGDKLRALKSQR [human SLiCE peptide]
trans stimulation, interchangeability test (hCdc14A^3A [2]): strongly stimulating hCdc14A | stimulation of activity (hCdc14A^3A [2]): strongly stimulated activity | stimulation of activity (WT hCdc14A): relatively small effect | trans stimulation, interchangeability test (ScCdc14^1-374): failed to significantly stimulate ScCdc14

QTSPGQPRKGQN [yeast SLiCE peptide]
trans stimulation, interchangeability test (hCdc14A^3A [2]): no effect on hCdc14A activity | trans stimulation, interchangeability test (ScCdc14^1-374): only able to significantly stimulate ScCdc14 | stimulation of catalytic rate (ScCdc14^1-374; near-saturating DiFMUP (60 μM), pH 7.5, 30 °C, normalized to no added peptide, at least three independent measurements): dose-dependent stimulation

CCCCCOc1ccc(-c2cc(-c3ccc(C(=O)N[C@H]4C[C@@H](O)[C@@H](O)NC(=O)[C@@H]5[C@@H](O)[C@@H](C)CN5C(=O)[C@H]([C@H](O)CC(N)=O)NC(=O)[C@H]([C@H](O)[C@@H](O)c5ccc(O)c(OS(=O)(=O)O)c5)NC(=O)[C@@H]5C[C@@H](O)CN5C(=O)[C@H]([C@@H](C)O)NC4=O)cc3)no2)cc1 [micafungin] (X1-[Orn(4R-OH,5R-OH)]T[Hyp][hTyr(3S-OH,4S-OH,3'-OSO3H)][Gln(3R-OH)][Pro(3S-OH,4S-Me)]; lactam 1-C)
sensitivity of sporadic faster growing colonies [3]: resistant

T[pS]GDKLRALKSQR [human SLiCE phosphopeptide, T(pS)… where pS is phosphoserine]
dephosphorylation as substrate (hCdc14A [4]): could not be dephosphorylated | inhibition of activity toward DiFMUP (hCdc14A [5]): unable to detect any inhibition | dephosphorylation as substrate (ScCdc14^1-449): could not be dephosphorylated | inhibition of activity toward DiFMUP (ScCdc14): unable to detect any inhibition
